Values of other authors as cited in patent US10500182B2, “Compositions of ketogenic sources, micronutrients and phytochemicals for prophylaxis and mitigation of migraine headache” (priority 2018, dated 2019).

Tests used:
migraine [1] = conditions: oral and intravenous supplementation, migraineurs
migraine [2] = conditions: ten percent solution applied topically to the forehead and temples

Compound | reduction of migraine frequency and severity (migraine [1]) | migraine pain and nausea (migraine [2])
[Mg+2] [magnesium, Magnesium] | more than 40% | –
CC1CCC(C(C)C)C(O)C1 (centres unmarked) [menthol] | – | effective at terminating migraine pain and easing nausea
